# In patent publication US7282215B2, “Supports for photosensitizer formulations” (The University of British Columbia, priority 2000, dated 2007):
# Like-named read-outs stand apart in the source and are kept apart here. Marks after values point to notes of the source that are not given here.
# Key:
# [1] = JM4 at 2 mg/ml, after overnight storage and centrifugation
# Protocol: 1 to 2 mg drug and 25-100 mg Pluronic are combined in methylene dichloride (CH2Cl2) to yield drug concentration of 1 mg/ml. CH2Cl2 is removed rapidly by rotary evaporation (Rotavapor R-124, Bucchi B172 Vacobox pump) at 50°, at maximum speed of rotation. Once a steady minimum pressure is achieved, the flask is held under vacuum for a further 20-30 min. […] Samples are kept overnight at room temperature to allow unincorporated drug to fall out, and then spun at 14,000 rpm {Eppendorff, Microfuge} for 30 min. Supernatant is decanted off into a fresh Eppendorff vial, and diluted 1:100 in the iso-osmolar medium used for thin film hydration (PBS or lactose) for determination of absorbance 690 nm (A690). Formulations are stored at 4° C. or frozen at −20° C. for long term storage.
# In this experiment the following three selected dihydroxychlorins were examined for formulation with 10% P123. Each of the drugs was prepared to a final concentration level of 1 mg/ml and the formulation protocol used is described in Example 5. These compounds were prepared as described in U.S. patent application Ser. Nos. 09/551,159 and 09/551,160, both filed Apr. 14, 2000, and No. 60/129,324, filed Apr. 14, 1999, all three of which are hereby incorporated by reference as if fully set forth. One of these compounds, JM4, was further tested for drug incorporation using 2.5 to 10% P123.
# [2] = Drug loading of liposomal versus 10% P123 formulations; type: physicochemical; settings: prepared at 2 mg/ml; for Drug loading, P123: Pluronic P123 10% weight/volume; for Drug loading, Liposome: liposomal formulation
# Protocol: 5 mg drug and lipids (40% EPG in DMPC) are combined in CH2Cl2 at a drug to lipid ratio of 1:10 w/w in 250 ml round bottom flask. The maximum concentration of drug in solvent is 2 mg/ml. CH2Cl2 is removed rapidly as described in Example 5. The resulting thin film is hydrated with 2.5 ml lactose solution (9.5% w/v) using hand swirling with glass beads at 40° C. Extrusion using Model 4T (Lipex Biomembranes Inc. B.C., Canada) is carried out with the thermostat set at 40° C. The multilamellar vesicles (MLVs) arising from hydration steps of the liposomal formulation were also examined under the microscope. MLVs are successively extruded 5 times through each of the 400 nm, 200 nm and 100 nm polycarbonate membranes (Nuclepore PC, Costar). Extruded samples were diluted 1:100 in PBS (pH 7.4) and the absorbance determined at 690 nm wavelength.
# In this experiment liposomal and block copolymer (micellar) photosensitizer formulations of A- and B-ring compounds of EA6 and B3 were compared. Each of the photosensitizer samples was prepared at a final drug concentration of 2 mg/ml. The block copolymer P123, and the liposomal formulations were prepared as described in the Examples 5 and 6, respectively.
# L1210 cells = experiment: In vitro phototoxicity (MTT assay after light exposure); type: cell-based
# Protocol: Exposure to drugs was carried out in the presence and absence of fetal calf serum (FCS) as a model to study transfer of drug to cells in vivo. […] A suspension of L1210 cells was prepared and exposed to various drug formulations (drug concentrations ranging from 0-50 ng/ml) either in the absence or presence of 10% fetal calf serum (FCS). One hour later, the drug was removed by pelleting the cells by centrifugation. The pellet was briefly washed with 1 ml DME and resuspended in 5% FCS/DME. 100 μl of the cell suspension was aliquoted into 6 wells of a 96 well plate, and the plate exposed to light at 10 J/cm^2. Viability was determined 24 h post exposure using the MTT assay (Mosmann, J. Immunol. Meth. 65:55-63, 1983).
# [3] = tested on: M1 rhabdomyosarcoma tumor; experiment: PDT tumor recurrence in tumor mouse model; type: in vivo, DBA/2 mouse; parameters: key to Percent (%) Mice Tumor Free: Mice suffered from phototoxic (PT) reaction at the site of light exposure and were subsequently euthanized
# Protocol: Photosensitizer formulations were prepared in 10% w/v Pluronics as described in Example 4. BPD-MA was formulated in F127. B-ring compounds B-EA6 and B-B3, were prepared in P123 due to insufficient drug loading in F127. Liposomal BPD-MA formulation was Verteporfin™ and B-ring compounds were formulated in the same lipid composition. Where DMSO/plasma preparations were made, the DMSO dissolved drug was added directly to mouse plasma and the drug association with different plasma components was observed.
# In these experiments the tumor model used was the DBA/2 mouse (males) inoculated intradermally with M1 rhabdomyosarcoma tumor cells (M1, ATCC. When tumors reached a diameter of 4-6 mm, the mice (n=10, unless other wise stated) were treated with photodynamic therapy (PDT). PDT involved intravenous injection of the formulated drug in 0.2 mL volume of PBS. This was followed by exposure of the tumor region to laser light (Argon pumped dye laser (5W), 690 nm, 50J/cm2) 15 min later. Animals were then monitored for tumor recurrence over a 20 day period post treatment.
# [4] = pH studies of copolymer formulations; type: physicochemical; settings: acidification
# Excerpt: Counteracting the oily nature of P123 could be achieved by incorporation of copolymer that is in solid form at room temperature. The use of 1% w/w F127 with 9% w/v P123 instead of 10% P123 (w/v) produced a thin film, which was more readily hydrated. […] This necessitates hydration of the solid drug-polymer with a very mild buffer to counteract acidification which occurs upon use of sterile packed distilled water as commonly practiced in clinical settings. Behavior of poloxamers is unaffected by pH, and the use of buffers would be entirely dependent on ionizable groups present on the drug substance.
# [5] = Vesicle size of liposomal A-EA6 after microfluidization; type: physicochemical; settings: for Size: 10 mL batch
# Protocol: MLVs obtained from each of the conventional and micro-thin films of EA6-A in 3% w/w DMPG/DMPC prepared in Example 24 were introduced into the reaction chamber of a small microfluidizer (23 ml capacity; M110S, Microfluidics). […] The reaction chamber was immersed in ice, with the pressure transducer (Dynisco μPR 690) setting adjusted to 10,000 psi.
# Use of the microfluidizer required priming the system with 9.2% lactose. The dead volume retained was considerably higher than stated in the manual, and as a result, only ˜2 mL of undiluted sample was recovered after the first pass in each case. […] Processing was carried out for a total of 6 passes, with 200 μl samples being removed for particle sizing following every pass. Due to limited recovery and dilution of the above samples, 2 larger batches (20 mL) were prepared using the conventional thin film process, and microfluidized with a total of 5 passes. To avoid excessive dilution of the unilammelar vesicles, recovery was limited to 8 mL.
# Microfluidisation was repeated with larger volumes of 20 mL. […] The final concentration of A-EA6 in both batches (HH02-5 A and HH02-5 B) was 1.5 mg/mL. These samples were processed with the microfluidiser in a hot water bath at 45° C. instead of ice to prevent suspension temperature falling below the phase transition of DMPC in between passes. Size determination was carried out by laser light scattering on a NICOMP™ 370 Submicron Particle Sizer.
# [6] = Liposomal drug release to FBS by fluorescence (Ffbs/Ftx); type: in vitro ADME, bovine; settings: 37° C., n=2
# Protocol: This experiment test drug release from micro-thin film preparations and conventional thin film vesicles (76 nm and 98 nm) produced in Example 25. The assay was carried out using an Aminco-Bowman 2 Fluorescence Spectrometer. It has previously been observed in the liposomal photosensitizer formulations that the fluorescence from the photosensitizer drug is quenched due to the high ratio of drug to lipid present. […] Fluorescence signal from liposomal suspensions is therefore low, and increases only when the drug leaves the bilayer for an alternative binding site.
# The increase in fluorescence signal reflects liposomal drug transfer in proportion to the rate and extent of transfer to added serum components.
# The liposomal suspension is diluted with 5% Dextrose to give an absorbance of 0.1 at the excitation wavelength (430 nm). […] 100 μl of FBS is added to the cuvette, and increase in fluorescence is monitored (following a quick couple of inversions) over 2-3 min if necessary. Once a steady level is achieved (noted as Ffbs), the liposomal system is disrupted using 0.05% v/v Triton X-100 to get a 100% drug level. The maximum fluorescence level is noted as Ftx. The ratio of Ffbs/Ftx gives an estimation of liposomal drug release, and is highly reproducible (SD ˜0-2% for n=5). Reported release results are based on 2-5 repeat assays depending on instrumental stability.
# [7] = Vesicle size of liposomal A-EA6 after microfluidization; type: physicochemical
structure (smiles),measurement,setting,value
"Cc1ccc(-c2c3nc(c(-c4ccc(C)cc4)c4ccc([nH]4)c(-c4ccc(C)cc4)c4nc(c(-c5ccc(C)cc5)c5ccc2[nH]5)C(O)C4O)C=C3)cc1 (stereo not drawn) [JM4, 5, 10, 15, 20-tetra (para-methyl phenyl)-2,-3-dihydroxychlorin]",Incorporation,[1]; P123 2.5% w/v,0.92 mg/mL
same,Incorporation,[1]; P123 5% w/v,1.43 mg/mL
same,Incorporation,[1]; P123 10% w/v,2.00 mg/mL
C=Cc1c(C)c2cc3nc(cc4[nH]c(cc5nc(cc1[nH]2)C1(C)C5=CC=C(C(=O)OC)C1C(=O)OC)c(C)c4CCC(=O)OCCO)C(CCC(=O)OCCO)=C3C (stereo not drawn) [B-EA6],"Drug loading, P123",[2],0.37 mg/mL
same,"Drug loading, Liposome",[2],0.06 mg/mL
same,LD50,"L1210 cells; Carrier Copolymer (P123), +FCS (10%)",12.9* ng/ml
same,LD50,"L1210 cells; Carrier Copolymer (P123), −FCS",2.06* ng/ml
same,LD50,"L1210 cells; Carrier DMSO, +FCS (10%)",20.0 ng/mL
same,LD50,"L1210 cells; Carrier DMSO, −FCS",4.7 ng/mL
same,LD50,"L1210 cells; Carrier Liposomal, +FCS (10%)",19.7 ng/mL
same,LD50,"L1210 cells; Carrier Liposomal, −FCS, 1 h drug, light 10 J/cm^2, MTT 24 h",4.7 ng/mL
same,Reaction at the irradiated site,"[3]; 1 mg/kg, formulated in P123, tumor bearing mice",strong phototoxic reaction (edema)
same,Percent (%) Mice Tumor Free,"[3]; Liposomal, 1.0 mg/kg i.v., 690 nm 50J/cm2 15 min later, Day 7",90%
same,Percent (%) Mice Tumor Free,"[3]; Liposomal, 1.0 mg/kg, Day 14",70%
same,Percent (%) Mice Tumor Free,"[3]; Liposomal, 1.0 mg/kg, Day 20",60%
same,Percent (%) Mice Tumor Free,"[3]; Pluronic P123, 0.5 mg/kg, Day 7",80%
same,Percent (%) Mice Tumor Free,"[3]; Pluronic P123, 0.5 mg/kg, Day 14",60%
same,Percent (%) Mice Tumor Free,"[3]; Pluronic P123, 0.5 mg/kg, Day 20",40%
same,Percent (%) Mice Tumor Free,"[3]; Pluronic P123, 1.0 mg/kg, Day 7",PT^1
same,Percent (%) Mice Tumor Free,"[3]; Pluronic P123, 1.0 mg/kg, Day 14",PT^1
same,Percent (%) Mice Tumor Free,"[3]; Pluronic P123, 1.0 mg/kg, Day 20",PT^1
same,pH dependency of formulation stability,[4],does not display any pH-dependency
"C=Cc1c(C)c2cc3nc(cc4[nH]c(cc5nc(cc1[nH]2)C(C)=C5CCC(=O)OCCO)c(CCC(=O)OCCO)c4C)C1(C)C3=CC=C(C(=O)OC)C1C(=O)OC (stereo not drawn) [A-EA6, Diethyleneglycol Ester A-ring]","Drug loading, P123",[2],1.82 mg/mL
same,"Drug loading, Liposome",[2],0.98 mg/mL
same,Size,"[5]; conventional thin film, pass 3",81 + 21^2 nm
same,Size,"[5]; conventional thin film, pass 4",63 nm
same,Size,"[5]; conventional thin film, pass 5",66 nm
same,Size,"[5]; conventional thin film, pass 6",63 nm
same,Mean vesicle size,"[5]; conventional thin film, 20 mL, after the first pass",98 nm
same,Size,"[5]; micro-thin film, pass 1",141 + 54^2 nm
same,Size,"[5]; micro-thin film, pass 2",62 nm
same,Size,"[5]; micro-thin film, pass 3",67 nm
same,Size,"[5]; micro-thin film, pass 4",59 nm
same,Size,"[5]; micro-thin film, pass 5",60 nm
same,Size,"[5]; micro-thin film, pass 6",57 nm
same,Vesicle size,"[5]; microfluidized, 10 mL volume",~60 nm
same,Drug release from liposomal formulation to 5% FBS,[6]; micro-thin film batch,72%
same,Drug release from liposomal formulation to 5% FBS,[6]; thin film batch,67%
same,Vesicle size,[7]; final extrusion through 100 nm filters,100-110 nm
same,Mean vesicle size,"[7]; micro-thin film, 20 mL, after the first pass",76 nm
C=Cc1c(C)c2cc3nc(cc4[nH]c(cc5nc(cc1[nH]2)C(C)=C5CCC(=O)OC)c(CCC(=O)OC)c4C)C1(C)C3=CC=C(C(=O)O)C1C(=O)OC (stereo not drawn) [A-B3],"Drug loading, P123",[2],1.33 mg/mL
same,"Drug loading, Liposome",[2],1.84 mg/mL
